In brackets after ≈: the same amount, converted by molar mass. Like-named read-outs stand apart in the source and are kept apart here.
Experiments:
[1] = system: L1210 mouse leukemia cells; assay: Formation of colonies of L1210 leukemia cells in soft agar (cytotoxicity in vitro); format: cell-based; conditions: for IC50: Mus musculus
Method: The cytostatic activity of the compounds according to the invention has been tested using L1210 mouse leukemia cells. Employed for this purpose was the formation of colonies of L1210 leukemia cells in agar plates. This method is used to detect the effect of the test substances on the growth behavior of the cells over 1 hour or over several generations. In this connection, with a cell cycle time of 10-12 hours about 14 consecutive generations are observed in the 7 days the test lasts. In this test, the substances having cytostatic activity according to the invention bring about a reduction in the number of colonies to be observed by comparison with an untreated control sample.
Procedure for determining the formation of colonies of L1210 leukemia cells in soft agar
500 leukemia cells per plate were incubated with various concentrations of the test substance at 37° C. for 1 hour. The cells were then washed twice with McCoy5A medium and finally, after addition of 0.3% agar, poured into Petri dishes. Controls were incubated only with fresh medium. In place of the incubation for one hour, in some cases various concentrations and test substances were mixed with the upper agar layer in order in this way to achieve continuous exposure of the cells throughout the incubation time. After the agar had solidified, the plates were incubated in an incubator at 37° C. for 7 days (5% by volume CO2, 95% relative humidity). The number of colonies which had been produced with a diameter of more than 60 μm was then counted. The results have been reported as the number of colonies in treated agar plates as a percentage of the untreated control. The IC50 was determined as a measure of the activity of the substance from the dose-effect plot obtained in this way. The results for the compounds described herein, by comparison with adriamycin, are compiled in Table 1.

[2] = system: sensitive and resistant L1210 leukemia cells; assay: Proliferation test (MTT reduction), cross-resistance to doxorubicin/adriamycin in vitro; format: cell-based, mouse; conditions: for Degree of resistance of the cell / Cross-resistance to adriamycin (degree of cross-resistance): MTT, 3d; for Degree of resistance of the cell: IC50 resistant subline related to IC50 sensitive subline; for Cross-resistance to adriamycin (degree of cross-resistance): adriamycin = 100.0
Method: L1210, A 549 or HT 29 in the exponential phase of growth are incubated in a cell density of 5×10^3 cells/ml in RPMI 1640 in a 96-well microtiter plate with various concentrations of the test substance at 37° C., 5% CO2 and 95% relative humidity for 72 h. Control experiments receive merely growth medium in place of the test substance. Quadruplicate determinations are set up for each test substance and for the control. After incubation for 65 h, 50 μl of an MTT solution (2.5 mg/ml; MTT=3-(4,5-dimethylthiazol-2-yl)-2,5-diphenyltetrazoliumbromide) in phosphate-buffered saline) are added. MTT is reduced to a dark red insoluble formazan dyestuff in the presence of live cells. This reaction is complete after 7 h (L1210 cells) or after 24 h (A 549, HT 29 cells), and the supernatant medium is carefully removed by aspiration. The insoluble dyestuff is dissolved by addition of 100 μl of DMSO (dimethyl sulfoxide) and the extinction of the resulting solution at a wavelength of 492 nm is then measured for each well in a multiscan 340 CC photometer from Flow.
The ratio of the extinctions for treated and untreated cells provides a dose-effect plot from which the concentration which just kills 50% of the cells (IC50) can be read off. The coefficient of variation for repeat investigations is less than 15%.
The cross-resistance between the particular test compound and doxorubicin as standard compound is determined with the aid of the MTT test (see above for method) on sensitive and resistant L1210 leukemia cells.
The resistant cell line was established by incubation of a sensitive subline with the reference compound in concentrations which increased stepwise.
The IC50 of the test compound on the resistant subline related to the IC50 of the sensitive subline provides both the degree of resistance for the test Compound (DR(T)) and that for the reference compound (DR(R)) in accordance with the formula [formula]
In addition, the degree of cross-resistance (DCR) for the test compound is calculated in accordance with the formula [formula]
In the case where the loss of effect of the test compound on the resistant line in relation to the sensitive line is greater than that of the reference compound it is possible for the degree of cross-resistance to be above 100%.

[3] = Determination of the indicative toxicity; conditions: mouse, in vivo, ip; 3xip,q3d (three intraperitoneal administrations, 3 days interval); survival day 14
Method: To determine the indicative toxicity, NMRI mice receive an intraperitoneal injection of various doses of the test substance dissolved in 0.5 ml of 5% strength glucose solution on day 0. Control groups receive merely 0.5 ml of 5% strength glucose solution. 5 mice are used for each concentration of the test substance. The number of mice surviving on day 14 is determined, and from this the LD5, LD50 and LD95 are determined by the Litchfield-Wilcoxon method. The toxicity (LD50 (mg/kg)) of the compounds described here is summarized in Table 3 by comparison with adriamycin.

L1210 leukemia = assay: In vivo activity on L1210 leukemia of the mouse (antitumor activity T/C)
Method: Ascites fluid is removed from DBA2 mice (female, 18-20 g) under sterile conditions 7 days after inoculation of tumor cells. The ascites is washed three times with PBS (phosphate-buffered saline), counted and adjusted to a cell count of 10^6 in 0.2 ml of PBS.
10^6 cells, suspended in 0.2 ml of PBS, are then injected intraperitoneally into DBF1 mice (female, 18-20 g). 6 animals per group are used for each substance concentration and as controls.
a) The animals are weighed on days 1 and 5 after injection of the test substance. A weight loss of more than 20% on day 5 is regarded as an indicator of a toxic effect of the substance.
b) At the end of the experiment (death of all animals or surviving animals on day 60) the mean survival time of the animals in the particular groups is determined as long as at least 65% of the animals were still alive on day 5 of the experiment. The mean survival time is determined only for animals which die during the course of the experiment. Long-term survivors (LTS) are not included in this calculation and are reported separately.
The antitumor activity (T/C) for the particular substance concentration is determined from the mean survival time (MSTT) in the treated groups and in the control groups (MSTC) as a percentage of the untreated controls in accordance with the following formula: [formula]
The T/C values and the treatment regimen employed in each case are compiled in Table 3, together with the indicative toxicity. T/C values greater than 125% are regarded as an indicator of a significant antitumor activity of the test substance.

[4] = 1 h incubation, then 7 days, L1210 colonies in agar
[5] = continuous incubation, 7 days, L1210 colonies in agar
[6] = 168 h, continuous incubation, 7 days, L1210 colonies in agar, read-out: IC50, continuous incubation
[7] = 1 h incubation, then 7 days, L1210 colonies in agar, read-out: IC50, 1 h incubation
[8] = L1210, 168 h, read-out: IC50, continuous incubation, continuous incubation, 7 days, L1210 colonies in agar
[9] = L1210, read-out: IC50, 1 h incubation, 1 h incubation, then 7 days, L1210 colonies in agar

Row | Compound | IC50 [1, 6] | IC50 [1, 7] | LD50 at 336 h [3] | also measured
1 | CC[C@@]1(O)C[C@H](O[C@H]2C[C@H](N(C)CC3CO3)[C@H](O)[C@H](C)O2)c2c(O)c3c(c(O)c2[C@H]1O)C(=O)c1cccc(O)c1C3=O (single isomer, unassigned) [Compound 8a, 7-O-(3'-N-Glycidyl-3'-N-methyl-alpha-L-daunosaminyl)-β-rhodomycinone] | – | – | – | IC50, 1 h incubation [1, 4]: 0.0034 µg/mL (≈ 0.00581 µM); IC50, continuous incubation [1, 5]: 0.001 µg/mL (≈ 0.00171 µM)
2 | CC[C@@]1(O)C[C@H](O[C@H]2C[C@H](N(C)CC3CO3)[C@H](O)[C@H](C)O2)c2c(O)c3c(c(O)c2[C@H]1O)C(=O)c1cccc(O)c1C3=O (single isomer, unassigned) [Compound 8b, 7-O-(3'-N-Glycidyl-3'-N-methyl-alpha-L-daunosaminyl)-β-rhodomycinone] | – | – | – | IC50, 1 h incubation [1, 4]: 0.01 µg/mL (≈ 0.0171 µM); IC50, continuous incubation [1, 5]: 0.003 µg/mL (≈ 0.00512 µM)
3 | COc1cccc2c1C(=O)c1c(O)c3c(c(O)c1C2=O)C[C@@](O)(C(=O)CO)C[C@@H]3O[C@H]1C[C@H](N)[C@H](O)[C@H](C)O1 [Adriamycin, reference compound] | 0.02 µg/mL (≈ 0.0368 µM) | 0.04 µg/mL (≈ 0.0736 µM) | 2.7 mg/kg | Degree of resistance of the cell [2]: 60-80; Cross-resistance to adriamycin (degree of cross-resistance) [2]: 100.0%; Animals recovered (longterm survivors) (L1210 leukemia; 3xip,q3d, L1210-leukemia in vivo): Two of 6
4 | CC[C@@]1(O)C[C@H](O[C@H]2C[C@H](N(C)CCO)[C@H](O)[C@H](C)O2)c2c(O)c3c(c(O)c2[C@H]1O)C(=O)c1cccc(O)c1C3=O [Compound 3, -O-(3'-N-Hydroxyethyl-3'-N-methyl-alpha-L-daunosaminyl)-β-rhodomycinone] | 0.02 µg/mL (≈ 0.0349 µM) | 0.044 µg/mL (≈ 0.0767 µM) | 0.2 to 1 mg/kg | response vs control in vivo at 1.13 mg/kg (L1210 leukemia; Mus musculus, L1210, iv, 3xiv,q3d, dose 1.13 mg/kg, % of the control): 108%
5 | CC[C@@]1(O)C[C@H](O[C@H]2C[C@H](N(C)Cc3ccncc3)[C@H](O)[C@H](C)O2)c2c(O)c3c(c(O)c2[C@H]1O)C(=O)c1cccc(O)c1C3=O [Compound 4, 7-O-(3'-N-Methyl-3'-N-(4-picolyl)-alpha-L-daunosaminyl)-β-rhodomycinone] | 0.023 µg/mL (≈ 0.0371 µM) | 0.1 µg/mL (≈ 0.161 µM) | 2.5 to 5 mg/kg | Cross-resistance to doxorubicin (in words) ([2]; L1210, MTT, in vitro): not cross-resistant to doxorubicin; Degree of resistance of the cell [2]: 1.6; Cross-resistance to adriamycin (degree of cross-resistance) [2]: 0.2%
6 | CC[C@@]1(O)C[C@H](O[C@H]2C[C@H](N(C)Cc3ccccn3)[C@H](O)[C@H](C)O2)c2c(O)c3c(c(O)c2[C@H]1O)C(=O)c1cccc(O)c1C3=O [Compound 5, 7-O-(3'-N-Methyl-3'-N-(2-picolyl)-alpha-L-daunosaminyl)-β-rhodomycinone] | 0.038 µg/mL (≈ 0.0612 µM) | 0.24 µg/mL (≈ 0.387 µM) | – | –
7 | CC[C@@]1(O)C[C@H](O[C@H]2C[C@H](N(C)CC(N)=O)[C@H](O)[C@H](C)O2)c2c(O)c3c(c(O)c2[C@H]1O)C(=O)c1cccc(O)c1C3=O [Compound 7, 7-O-(3'-N-Acetamido-3'-N-methyl-alpha-L-daunosaminyl)-β-rhodomycinone] | 0.084 µg/mL (≈ 0.143 µM) | 0.24 µg/mL (≈ 0.409 µM) | 2 to 5 mg/kg | response vs control in vivo at 11.2 mg/kg (L1210 leukemia; Mus musculus, L1210, iv, 3xiv,q3d, dose 11.2 mg/kg, % of the control): 142%
8 | CC[C@@]1(O)C[C@H](O[C@H]2C[C@H](N(C)CC3CO3)[C@H](O)[C@H](C)O2)c2c(O)c3c(c(O)c2[C@H]1O)C(=O)c1cccc(O)c1C3=O (stereo partly drawn) [Compound 8m, 7-O-(3'-N-Glycidyl-3'-N-methyl-alpha-L-daunosaminyl)-β-rhodomycinone] | – | – | – | IC50 [1, 8]: 0.002 µg/mL (≈ 0.00342 µM); IC50 [1, 9]: 0.0072 µg/mL (≈ 0.0123 µM); response vs control in vivo at 0.47 mg/kg (L1210 leukemia; Mus musculus, L1210, ip, read-out: T/C, L1210-leukemia in vivo): 114%
9 | C=CCN(C)[C@H]1C[C@H](O[C@H]2C[C@](O)(CC)[C@H](O)c3c(O)c4c(c(O)c32)C(=O)c2c(O)ccc(O)c2C4=O)O[C@@H](C)[C@H]1O [Compound 9, 7-O-(3'-N-Allyl-3'-N-methyl-alpha-L-daunosaminyl)-β-isorhodomycinone] | 0.008 µg/mL (≈ 0.0137 µM) | 0.5 µg/mL (≈ 0.854 µM) | > 6 mg/kg | –
10 | CCOC(=O)CN(C)[C@H]1C[C@H](O[C@H]2C[C@](O)(CC)[C@H](O)c3c(O)c4c(c(O)c32)C(=O)c2c(O)cccc2C4=O)O[C@@H](C)[C@H]1O [Compound 10, 7-O-(3'-N-(Ethoxycarbonylmethyl)-3'-N-methyl-alpha-L-daunosaminyl)-β-rhodomycinone] | 0.1 µg/mL (≈ 0.162 µM) | 0.06 µg/mL (≈ 0.0975 µM) | 10 to 25 mg/kg | response vs control in vivo at 12.7 mg/kg (L1210 leukemia; Mus musculus, L1210, iv, 3xiv,q3d, dose 12.7 mg/kg, % of the control): 132%
11 | CC[C@@]1(O)C[C@H](O[C@H]2C[C@H](N(C)Cc3cccs3)[C@H](O)[C@H](C)O2)c2c(O)c3c(c(O)c2[C@H]1O)C(=O)c1cccc(O)c1C3=O [Compound 13, 7-O-(3'-N-Methyl-3'-N-(2-thenyl)-alpha-L-daunosaminyl)-β-rhodomycinone] | 0.034 µg/mL (≈ 0.0543 µM) | 0.38 µg/mL (≈ 0.607 µM) | – | –
12 | C=CCN(C)[C@H]1C[C@H](O[C@H]2C[C@](O)(C(C)=O)Cc3c(O)c4c(c(O)c32)C(=O)c2c(OC)cccc2C4=O)O[C@@H](C)[C@H]1O [Compound 15, 7-O-(3'-N-Allyl-3'-N-methyl-alpha-L-daunosaminyl)-daunomycinone] | – | – | – | IC50 [1, 8]: 0.008 µg/mL (≈ 0.0138 µM); IC50 [1, 9]: > 1 µg/mL
13 | C=CCN(C)[C@H]1C[C@H](O[C@H]2C[C@](O)(CC)[C@H](O)c3c(O)c4c(c(O)c32)C(=O)c2c(OC)cccc2C4=O)O[C@@H](C)[C@H]1O [Compound 17, 7-O-(3'-N-Allyl-3'-N-methyl-alpha-L-daunosaminyl)-4-O-methyl-β-rhodomycinone] | 0.036 µg/mL (≈ 0.0617 µM) | > 1 µg/mL | – | –
14 | CC[C@@]1(O)C[C@H](O[C@H]2C[C@H](N(C)CC(C)=O)[C@H](O)[C@H](C)O2)c2c(O)c3c(c(O)c2[C@H]1O)C(=O)c1cccc(O)c1C3=O [Compound 18, 7-O-(3'-N-Acetonyl-3'-N-methyl-alpha-L-daunosaminyl)-β-rhodomycinone] | 0.018 µg/mL (≈ 0.0307 µM) | 0.073 µg/mL (≈ 0.125 µM) | – | –

Source: patent US5260425A, “Anthracycline derivatives having cytostatic activity” (priority 1988, dated 1993)
